# Source: patent US20120301895A1, “METHODS OF MODULATING BINDING OF SON OF SEVENLESS TO PHOSPHATIDIC ACID AND IDENTIFYING COMPOUNDS THAT MODULATE SUCH BINDING” (THE RESEARCH FOUNDATION OF STATE UNIVERSITY OF NEW YORK, priority 2007, published 2012)
# Experiments:
# [1] = tested on: human prostate cancer cells; conditions: Shigemura et al. 2007; cited from earlier work
# [2] = tested on: PLD activity in 786-O cells; test: PLD activity in 786-O cells; format: cell-based, human; conditions: no activated Ras
# Excerpt: The PLD activity elevated in response to stress in the MDA-MB-231 cells was dependent on Ras in the MDA-MB-231, and also in the Calu1, and T24 cancer cells (Shi et al., “Elevated Phospholipase D Activity in Human Cancer Cells with Activating Ras Mutations Provides Survival Signal,” Cancer Lett. 258:268-75 (2007), which is hereby incorporated by reference in its entirety). […] This is interesting in that there is an activated K-Ras gene in the MDA-MB-231 cells. Similarly, there are activating mutations to Ras genes in both the Calu1 and T24 cells. It was recently reported that the PLD activity in the T24 cells, where H-Ras is activated, is dependent on the expression of H-Ras; and the PLD activity in the Calu-1 cells, where K-Ras is activated, is dependent on the expression of K-Ras (Shi et al., “Elevated Phospholipase D Activity in Human Cancer Cells with Activating Ras Mutations Provides Survival Signal,” Cancer Lett. 258:268-75 (2007), which is hereby incorporated by reference in its entirety). […] However, it is also possible that the increased GTP bound Ras represents activation of the non-mutated Ras—either the Ras protein encoded by the non-mutated wild type allele or other Ras isoforms. In the case of the MDA-MD-231 that would mean that H-Ras was being activated or the wild type K-Ras encoded by the non-mutant allele. […]
# Ras = Ras activation pull-down assay (Raf1 Ras binding domain) in MDA-MB-231 cells; format: cell-based, human; conditions: 0.5% serum
# Experimental: In FIG. 14A, MDA-MB-231 cells were plated and then placed in media containing 0.5% media 24 hr later. 24 hr later, the cells were treated with either DMSO or honokiol (20 μM) as indicated for 2 hr. At this point the cells were harvested and lysates were prepared and treated with the immobilized Ras binding domain of Raf1 as in FIGS. 12A-C. Ras-GTP bound to the Raf1 binding domain was recovered and subjected to Western blot analysis using the Pan-Ras antibody. Total Ras in the cell lysates and actin levels were also examined by Western blot analysis. In FIG. 14B, MDA-MB-231 cells were plated and 24 hr later were shifted to media containing 0.5% serum. The cells were then treated with EGF (200 ng/ml) for 10 min. The cells were also treated with honokiol (20 μM) prior to the addition of EGF for the times indicated. The levels of GTP-bound Ras, total Ras, and actin were then determined as in FIG. 14A. […] Cells were then collected and Ras activation was determined using the pull-down assay as above. Levels of Ras-GTP, Sos, and Ras were determined by Western blot analysis using an antibody that recognized HA. […] Cells were then stimulated with 100 ng/ml EGF for the indicated times (min) and Ras activation was determined as in FIG. 14A. […] Cells were then stimulated with 100 ng/ml EGF for the indicated times (min) and Ras activation was determined as in FIG. 14A. […]
smiles,measurement,setting,value
"C=CCc1ccc(O)c(-c2ccc(O)c(CC=C)c2)c1 [honokiol, Honokiol]",bone metastatic growth of human prostate cancer cells,[1],inhibit the bone metastatic growth
same,PLD activity,[2],blocks
same,Ras activation induced by EGF,Ras; honokiol 20 μM before EGF 200 ng/ml 10 min,suppressed
same,level of GTP-bound Ras,"Ras; honokiol 20 μM, 2 hr, effect small, but reproducible",suppressed
